Several values for one entry are separate records, joined by “and”; a condition that tells them apart may be missing. Identical values can stand only once.
How the values were obtained:
[1] = system: uterus; experiment: Immature female rat model, uterine weight and histology; assay type: in vivo
From the text: Some endocrine therapies, such as tamoxifen, have been reported to display weak agonistic activity in the endometrium due to altered cofactor recruitment and subsequent activation of gene transcription. We therefore sought to test whether AZ’6421 was a complete antagonist or could act as a partial agonist, in both in vitro and in vivo models. […] Plasma samples were taken 4 hr after the 4th dose, at the same time as the uterus was weighed and sectioned for H&E staining. To further explore whether AZ’6421 may be acting as an agonist in vivo, morphological changes of the uterine were examined: uterine horns were formalin-fixed paraffin-embedded, stained with haematoxylin and eosin and then transverse sections of uterus examined.

[2] = system: PR expression; experiment: ER agonism: PR expression in Ishikawa cells by western blot; assay type: cell-based
Description: Fig. 8 Evidence of ER agonism of AZ’6421 and compound 8 in vitro and in vivo. a 100 nM compound or 10 nM estradiol (E2) were incubated with Ishikawa cells for 48 h and lysates measured for PR expression by western blot. b Normalised rat uterine weight shown as % change from respective vehicle control after 4 days dosing. c Representative H&E stained images taken from sections of uterine horn after 4 days of dosing. d Total plasma exposure of AZ’6421 and its metabolite 8 following dosing of 100 mg/kg BID or 30 mg/kg BID AZ’6421. Plasma samples were taken 4 hr after the 4th dose, at the same time as the uterus was weighed and sectioned for H&E staining.
(§1) Cells were seeded into 12-well tissue culture-treated plates at 0.5 x 10^6 cells/well in phenol red-free RPMI containing 5% (v/v) charcoal-stripped FBS (F6765, Sigma) and left to adhere overnight. In experiments to detect agonism or for SILAC experiments, FBS was double stripped using activated charcoal. Cells were treated with compound or 0.1% DMSO vehicle control for the times indicated prior to being lysed in Pierce RIPA buffer (Thermo Scientific), supplemented with protease and phosphatase inhibitors. Expression levels of proteins were determined by standard western blotting techniques (BioRad 4%-12% Bis-Tris gels). Antibodies were diluted in 5% milk-PBS-Tween and protein levels were detected using Pierce WestDura chemiluminescent reagents followed by visualisation and quantification on a Syngene ChemiGenius Imager. Where blots were quantified, protein levels were normalised to beta-actin or vinculin control and expressed as % of vehicle control.

[3] = target: T1, ERα (Homo sapiens, UniProt P03372); experiment: Western blot analysis of ERα in MCF7 cells (dose response, MG132, VHL ligand and cpd 8 competition); assay type: cell-based; conditions: MCF7
T1 construct: endogenous in cells; host or cells: MCF7 (also MCF7 engineered to express Cas9)
T1 sequence (P03372 1-595): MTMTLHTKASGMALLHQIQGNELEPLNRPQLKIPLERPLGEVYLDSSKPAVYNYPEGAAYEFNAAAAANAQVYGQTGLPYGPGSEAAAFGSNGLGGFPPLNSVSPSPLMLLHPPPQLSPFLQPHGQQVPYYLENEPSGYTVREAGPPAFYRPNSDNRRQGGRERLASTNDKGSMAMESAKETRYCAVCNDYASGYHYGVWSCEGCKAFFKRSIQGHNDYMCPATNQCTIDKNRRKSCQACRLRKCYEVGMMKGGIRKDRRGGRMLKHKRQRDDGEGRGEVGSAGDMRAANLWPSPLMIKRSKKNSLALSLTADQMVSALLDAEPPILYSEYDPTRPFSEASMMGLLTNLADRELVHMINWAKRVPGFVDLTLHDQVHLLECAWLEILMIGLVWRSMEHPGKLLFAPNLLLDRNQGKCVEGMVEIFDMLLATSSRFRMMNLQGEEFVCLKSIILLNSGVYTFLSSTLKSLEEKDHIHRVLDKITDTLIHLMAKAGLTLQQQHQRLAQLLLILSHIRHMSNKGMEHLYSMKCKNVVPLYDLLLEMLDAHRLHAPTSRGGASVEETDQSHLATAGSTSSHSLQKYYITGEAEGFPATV
Description: Fig. 2 AZ’6421 degrades ERα through a PROTAC mechanism of action. a Immunoblots for ERα and vinculin loading control. MCF7 cells were pre-treated with 10 µM MG132 or DMSO control for 1 h before being exposed to DMSO, AZ’6421, or fulvestrant, at the concentrations indicated, for a further 7 h. A representative immunoblot from two biological replicates is shown. b As in a but cells were pre-treated with 10 µM VHL ligand (Ac-(S,R,S)-AHPC) prior to addition of DMSO, AZ’6421 or fulvestrant. c MCF7 cells expressing BFP-Cas9 were reverse transfected with the crRNA:tracrRNA pool targeting VHL for 72 h prior to treatment with increasing concentrations of AZ’6421 for a further 24 h. Cells were then fixed, stained, and imaged to assess ERα and Cas9 expression. ERα levels in Cas9 positive cells were normalised to unedited cells (0) and ESR1 KO cells (-100). Data points are from three independent experiments, points in bold represent the mean. d Structure of AZ’6421 and the (S)-prolinol epimer, 7. e Concentration-response curves for AZ’6421 and 7. ERα levels in MCF7 cells were assessed using an immunofluorescence endpoint after 24 h exposure to compound. […] Data points are from 5 (AZ'6421) or 2 (Cpd 7) independent experiments with technical duplicates performed for each experiment, bold points represent the mean. All concentration-response curves were plotted using nonlinear regression analysis in GraphPad Prism.
Fig. 6 Assessment of the cause of the in vitro/in vivo disconnect. a CTC174 tumours were disaggregated into single cells, seeded in 6-well plates and dosed with increasing concentrations of AZ’6421 for 24 hours before being lysed. ERα levels were assessed by immunoblotting. ERɑ levels normalised to vinculin and expressed as % DMSO control are shown underneath the immunoblot. b Representative IHC images taken from sections of tumour treated with vehicle control or 100 mg/kg AZ’6421 for 4 days. Sections were stained with an antibody against ERα (Sp1, Ventana). c Schematic of potential sites of metabolism d Free plasma exposure of AZ’6421 and its metabolite 8 following 100 mg/kg dosing of AZ’6421. e Concentration-response curves for AZ’6421 and metabolite 8. ERα levels in MCF7 cells were assessed using an immunofluorescence endpoint after 24 h exposure to compound. […] Points in bold represent the mean. f Effect of metabolite 8 on ERα degradation in CTC174 cells cultured ex vivo. […] MCF7 cells were pre-treated with 10 µM cpd 8 or DMSO control for 1 h before being exposed to DMSO, AZ’6421 or fulvestrant, at the concentrations indicated, for a further 24 h. A representative immunoblot from two biological replicates is shown. TEXT PRINTED IN THE PICTURE: (a) AZ'6421: ERα % of DMSO control: 20.3 (1 nM); ERα % of DMSO control: 12.0 (10 nM); ERα % of DMSO control: 4.1 (30 nM); ERα % of DMSO control: 4.2 (100 nM); ERα % of DMSO control: 3.9 (300 nM); ERα % of DMSO control: 3.6 (1000 nM)
as §1

[4] = target: T1, ERα; experiment: Hypoxia studies, ERα degradation in MCF7 cells; assay type: cell-based; conditions: 100 nM
Description: MCF7 cells were seeded into 12-well tissue culture-treated plates at 0.5x10^6 cells/well in phenol red-free RPMI media containing 5% (volume/volume [v/v]) charcoal-stripped FBS (F6765, Sigma) and left to adhere overnight. The hypoxia-treated plates were transferred to a Thermo Heracell 150 Tri-gas Incubator set at 2% O2 and allowed to equilibrate to the lower oxygen level overnight. Cells were treated with compound or 0.1% DMSO vehicle control for 48 hours prior to being lysed in Pierce RIPA buffer (Thermo Scientific), supplemented with protease and phosphatase inhibitors. Lysis was carried out immediately after removal from the Tri-gas incubator to prevent the rapid degradation of HIF1α on re-exposure to the higher oxygen levels. Protein expression was determined by standard western blotting procedures as described above.

[5] = target: T1, ERα; experiment: SILAC pulse-chase and mass spectrometry, ERα turnover in MCF7 cells; assay type: cell-based; conditions: 1 µM
Description: MCF7 cells were grown for a minimum of 2 passages in SILAC media (Pierce, Thermo Scientific) containing ^13C6^15N4 arginine and ^13C6 lysine. The extent of stable isotope incorporation was determined by mass spectrometry. For the assay, cells were plated at 1.2 x 10^6 cells/well into 6-well TC-treated plates in media containing 5% double charcoal stripped FBS^13,C6^15N4 arginine and ^13C6^15N2 lysine for 24 hours. At time 0, the media containing isotopically heavy arginine and lysine was replaced with media containing unlabelled equivalents plus either AZ’6421, fulvestrant or DMSO control. […] Equal concentrations of timecourse lysates were mixed with an internal standard lysate derived from ^[…] lysine labelled MCF7 cells. ER protein was immunoprecipitated overnight at 4 °C with an ER antibody (Rabbit clone SP1, Thermo Scientific) and immobilised onto a U-bottomed Nunc MaxiSorp plate (Thermo Scientific). Wells were sequentially washed with each of the following; RIPA buffer, PBS and water. Samples were digested by addition of 30 μL well sequencing grade trypsin (Promega) in 50 mM ammonium bicarbonate at 37 °C for a minimum of 16 hours. The resultant peptide samples were acidified and analysed by selected reaction monitoring (SRM) mass spectrometry. Protein half-life was determined using the one-phase exponential decay function in GraphPad PRISM where Y = (Y0 - Plateau)*exp(-K*X) + Plateau.

Compound	Uterine weight normalised to body weight (% vehicle) ([1]; 5 mg/kg, individual animals)	uterine epithelium morphology (H&E) ([1]; immature female rat, 4 days dosing)	PR expression (% vs 10 nM E2) ([2]; 100 nM compound, individual replicates)	PR expression in the Ishikawa endometrial cell line ([2]; 100 nM, 48 h)	effect of MG132 pre-treatment on ERα degradation ([3]; 10 µM MG132 1 h, then compound 7 h)	effect of excess acetylated-(S,R,S)-AHPC pre-treatment on ERα degradation ([3]; 10 µM VHL ligand)	ERa levels (% of vehicle control) ([4]; Hypoxic)	ERa levels (% of vehicle control) ([4]; Normoxic)	% heavy (ERα heavy peptide) ([5]; Time 0, MCF7)	% heavy (ERα heavy peptide) ([5]; Time 0.5)	% heavy (ERα heavy peptide) ([5]; Time 1)	% heavy (ERα heavy peptide) ([5]; Time 2)	% heavy (ERα heavy peptide) ([5]; Time 4)	% heavy (ERα heavy peptide) ([5]; Time 7)	% heavy (ERα heavy peptide) ([5]; Time 24)	% heavy (ERα heavy peptide) ([5]; Time 48)
C[C@@H]1Cc2c([nH]c3ccccc23)[C@@H](c2c(F)cc(/C=C/C(=O)O)cc2F)N1CC(C)(C)F [AZD9496, (E)-3-(3,5-Difluoro-4-((1R,3R)-2-(2-fluoro-2-methylpropyl)-3-methyl-2,3,4,9-tetra hydro-1H-pyrido[3,4-b]indol-1-yl)phenyl)acrylic Acid, reference compound]	178.44% and 156.17% and 157.43% and 195.46% and 128.27%	low columnar uterine epithelium	5.08% and 7%	induced PR expression												
C[C@]12CC[C@@H]3c4ccc(O)cc4C[C@@H](CCCCCCCCC[S+]([O-])CCCC(F)(F)C(F)(F)F)[C@H]3[C@@H]1CC[C@@H]2O (stereo partly shown) [fulvestrant, reference compound]					attenuated ERα degradation	had no effect	5.829%	10.860%	100.0%	39.1% and 49.6% and 42.4%	29.7% and 37.1% and 33.5%	20.8% and 29.3% and 28.1%	10.9% and 15.5% and 18.5%	5.3% and 6.8% and 7.7%	4.3% and 6.1%	4.6% and 6.1% and 3.9%

From publication PMC11091220, “Metabolism-driven in vitro/in vivo disconnect of an oral ERɑ VHL-PROTAC” (Communications Biology, 2024)
